The results in this text go back to paper PMC12291762 (Antioxidants, 2025).

Each structure is given as a SMILES string. Where only a bound is given, the exact number is not on record here.

For one test, the target named is T1, COX-1 (Ovis aries, UniProt P05979).
T1 sequence (P05979 25-600): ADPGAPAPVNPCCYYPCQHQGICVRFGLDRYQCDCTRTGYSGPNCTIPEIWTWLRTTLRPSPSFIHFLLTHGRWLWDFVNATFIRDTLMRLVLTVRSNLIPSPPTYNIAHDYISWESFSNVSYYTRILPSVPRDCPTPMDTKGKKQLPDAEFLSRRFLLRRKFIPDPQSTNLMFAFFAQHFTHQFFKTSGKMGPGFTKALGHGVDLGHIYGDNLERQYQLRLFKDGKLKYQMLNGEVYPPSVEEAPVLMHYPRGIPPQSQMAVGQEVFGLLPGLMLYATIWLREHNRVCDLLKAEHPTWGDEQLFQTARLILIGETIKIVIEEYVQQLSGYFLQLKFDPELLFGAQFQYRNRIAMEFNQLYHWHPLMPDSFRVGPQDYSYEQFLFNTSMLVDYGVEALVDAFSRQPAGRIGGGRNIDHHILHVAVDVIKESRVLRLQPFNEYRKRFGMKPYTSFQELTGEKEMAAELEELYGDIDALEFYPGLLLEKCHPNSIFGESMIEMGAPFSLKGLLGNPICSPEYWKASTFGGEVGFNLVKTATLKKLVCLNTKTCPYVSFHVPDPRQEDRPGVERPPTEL
In words: Fluorometric COX-1 inhibitor screening kit. It counts as biochemical. Also noted: purchased Abcam ab204698. As to conditions: mean ± standard error, three independent measurements. As to the method: The inhibitory activity of the tested compounds against COX-1 and COX-2 isoforms was assessed using fluorometric cyclooxygenase inhibitor screening kits (Catalog Numbers ab204698 and ab283401, respectively; Abcam, Cambridge, UK). These assays detect the formation of prostaglandin G2, a product of COX enzymatic activity, via fluorometric measurement.
Stock solutions of the test compounds were prepared at a concentration of 5 mM in DMSO and subsequently diluted with the same solvent to obtain the test solutions. For the assay preparation, 2 μL of each test solution was diluted with 8 μL of COX assay buffer. The solvent control (SC) consisted of 2 μL of DMSO and 8 μL of assay buffer, while the enzyme control (EC) contained 10 μL of assay buffer alone. Sample wells (S) received 10 μL of the diluted test solutions. All other steps were in accordance with the manufacturer’s protocol and the previously published article. […] The percentage of inhibition was calculated as follows:(3) % Relative Inhibition=Slope of EC−Slope of S/Slope of EC×100
Fluorescence measurements were conducted on a BioTek Synergy LX multi-mode reader (Winooski, VT, USA).

In test [1] the test system is carrageenan-induced rat paw edema. In words: Carrageenan-induced rat paw edema model of acute inflammation. It counts as in vivo, Wistar albino rats. As to the method: Inflammation was induced in all rats by an intraplantar injection of 100 μL of freshly prepared 1% carrageenan solution in distilled water into the left hind paw. A total of 56 male Wistar albino rats were randomly divided into five experimental groups (n = 40 rats, 8 rats per subgroup) and two control groups (n = 16 rats, 8 rats per subgroup).
The experimental groups consisted of rats that received synthesized compounds via intraperitoneal injection immediately following carrageenan administration. The solutions of the investigated molecules were prepared by dissolving the compound in distilled water with the addition of a few drops of Tween 80 [18], whereby each rat received 500 μL of the prepared solution. […] The negative control group included rats that received an intraperitoneal injection of the solvent solution (distilled water with a few drops of Tween 80) at the same time point.
To quantify the anti-edematous effect, the thickness of the left paw tissue of each rat was measured at specific time intervals: immediately before inflammation induction (moment 0) and at 1, 2, 3, and 4 h post-induction (moments 1, 2, 3, and 4, respectively). Tissue thickness was assessed in the middle of the rat paw using a digital vernier caliper (Aerospace, Beijing, China).
A general note: The carrageenan paw model is a standard test of acute inflammation.

For test [2], the system named is systemic oxidative stress parameters. In words: Systemic redox state (plasma, erythrocyte lysate) 24 h after carrageenan. It counts as in vivo, Wistar albino rats. As to the method: Following 24 h of carrageenan-induced paw edema inflammation model and intraperitoneal anesthesia induced by ketamine/xylazine (100/10 mg/kg of BW), the animals were sacrificed, while whole-blood samples and edema-affected paw tissues were isolated. After centrifugation of whole blood, plasma and erythrocyte lysate samples were separated for further examination of the applied compounds’ effects on the systemic redox balance state. Pro-oxidative markers including superoxide anion radical (O2∙^−), hydrogen peroxide (H2O2) nitrites (NO2^−), and index of lipid peroxidation measured as thiobarbituric acid (TBA) reactive substances (TBARS) were determined from plasma samples, while the antioxidant capacity, including superoxide dismutase (SOD) and catalase (CAT) activity, as well as the reduced glutathione (GSH) level were examined in erythrocyte lysate samples [46]. […] Edema-affected paw tissue samples were weighed (100 mg) and homogenized (OmniPrep™ multi-sample homogenizer, Omni International, Kennesaw, GA, USA) in 900 µL phosphate buffer on ice (pH = 7.4), and centrifuged at 12,000 rpm for 20 min. These supernatant samples were used for the determination of the aforementioned pro-oxidative and antioxidative parameters levels. All oxidative stress analyses were performed spectrophotometrically using a Shimadzu UV 1800 spectrophotometer (Kyoto, Japan).
Determination of the O2∙^− level was conducted by adding 950 µL of a Nitro Blue Tetrazolium (NBT) mixture with TRIS buffer in 50 µL of sample, measured at the 550 nm wavelength. The level of H2O2 was determined during the oxidation of phenol red by H2O2, which was catalyzed with horseradish peroxidase and measured at the 610 nm wavelength. Indirect measurement of nitrites was performed by the precipitation of samples with 30% sulfo-salicylic acid, followed by vortexing and centrifugation at 3000 rpm for 15 min. The equal volumes of isolated supernatant and Griess’ reagent (containing 1% sulfanilamide in 5% phosphoric acid/0.1% naphthalene ethylenediamine-dihydrochloride) were incubated for 10 min and measured at the 550 nm wavelength. The TBARS concentration was determined by adding 400 µL of sample to 200 µL of TBA in 0.05 M NaOH, followed by 15 min incubation at 100 °C. Measurement was performed at the 530 nm wavelength.
The epinephrine method was used for SOD determination. By adding 100 µL of sample, the same volume of epinephrine, and 1000 µL of carbonate buffer, the measurement was performed at the 470 nm wavelength. The determination of CAT activity was based on the preparation of a mixture containing 100 µL of sample, 50 µL of catalase buffer, and 1000 µL of 10 mM H2O2, which was measured at the 230 nm wavelength.

The IC50 is the point on the concentration scale where inhibition reaches its midpoint. For the compound `C[C@H](C(=O)N[C@@H](Cc1ccccc1)C(=O)O)c1cccc(C(=O)c2ccccc2)c1` [Compound 3, ((S)-2-(3-benzoylphenyl)propanoyl)-L-phenylalanine], the half-maximal inhibitory concentration (IC50) on COX-1 is greater than 100 µM. For the same compound, the “% of inhibition of paw edema, 1 h” value in test [1] (0.0315 mmol/kg i.p., 1 h, vs solvent group) stood at 10.526%. In addition, in test [1] (0.0315 mmol/kg i.p., 1 h post-carrageenan, mean ± SD), the “Rat paw thickness, 1 h” value is on record as 6.25 ± 0.25 mm. In addition, the “% of inhibition of paw edema, 2 h” value in test [1] (0.0315 mmol/kg i.p., 2 h, vs solvent group) was determined as 20.863%. Further, the “Rat paw thickness, 2 h” value in test [1] (0.0315 mmol/kg i.p., 2 h post-carrageenan, mean ± SD) amounted to 6.10 ± 0.18 mm. In addition, the “% of inhibition of paw edema, 3 h” value in test [1] (0.0315 mmol/kg i.p., 3 h, vs solvent group) is listed as 22.807%. Besides, the “Rat paw thickness, 3 h” value in test [1] (0.0315 mmol/kg i.p., 3 h post-carrageenan, mean ± SD) worked out at 5.73 ± 0.23 mm. For the same compound, in test [1] (0.0315 mmol/kg i.p., 4 h post-carrageenan, mean ± SD), the “Rat paw thickness, 4 h” value is recorded as 4.93 ± 0.37 mm. In addition, in test [1] (immediately before inflammation induction, mean ± SD), the “Rat paw thickness, 0 h” value was 4.27 ± 0.21 mm. The “Systemic SOD activity compared to Dex group” value in test [2] (erythrocyte lysate) was “significantly lower activity”. Besides, in test [2] (plasma), the “Systemic O2∙− level compared to Dex group” value is “no significant difference”; the “Systemic O2∙− level compared to untreated (Sol) rats” value was “significantly lower”; the “Systemic TBARS level compared to Dex group” value was “dexketoprofen injection significantly decreased the TBARS concentration compared to the Sol group, as well as rats treated with compounds 1, 3, and 4”.
